Five compounds from publication PMC6916333, “A lysin motif effector subverts chitin‐triggered immunity to facilitate arbuscular mycorrhizal symbiosis” (The New Phytologist, 2019) can be followed below.

Where two headings read alike, the source gives them in different places.

This experiment concerns the target T1, RiSLM (Rhizophagus irregularis, UniProt U9TZV5).
T1 construct: gene GLOIN_2v1561425; without signal peptide; single LysM domain; expressed in E. coli ORIGAMI from pET-SUMO, SUMO tag removed by ULP-1; c; 7 kDa (faint 14 and 21 kDa bands, possible oligomers); NT.115 RED dye label
In words: microscale thermophoresis. The following applies: dye-labelled protein 20 nM. It counts as binding.

The mark [1] stands for this setting: 50 mM Tris pH 7.4, 10 mM MgCl2, 150 mM NaCl, 0.05% Tween 20, 22 °C.

T1 sequence (U9TZV5 entry or part of it): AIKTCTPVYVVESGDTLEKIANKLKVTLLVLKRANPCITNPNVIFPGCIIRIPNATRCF

`CC(=O)N[C@H]1[C@H](O[C@H]2[C@H](O)[C@@H](NC(C)=O)C(O)O[C@@H]2CO)O[C@H](CO)[C@@H](O[C@@H]2O[C@H](CO)[C@@H](O[C@@H]3O[C@H](CO)[C@@H](O)[C@H](O)[C@H]3NC(C)=O)[C@H](O)[C@H]2NC(C)=O)[C@@H]1O` (some centres unmarked) [CO4, chitotetraose] registered a Kd under setting [1] of 37.1 ± 1.4 µM.
The same measure, in the same setting: then `CC(=O)N[C@H]1[C@H](O[C@H]2[C@H](O)[C@@H](NC(C)=O)[C@H](O[C@H]3[C@H](O)[C@@H](NC(C)=O)C(O)O[C@@H]3CO)O[C@@H]2CO)O[C@H](CO)[C@@H](O[C@@H]2O[C@H](CO)[C@@H](O[C@@H]3O[C@H](CO)[C@@H](O)[C@H](O)[C@H]3NC(C)=O)[C@H](O)[C@H]2NC(C)=O)[C@@H]1O` (some centres unmarked) [CO5], with 59.4 ± 2.1 µM.
Compound `CC(=O)N[C@H]1[C@H](O[C@H]2[C@H](O)[C@@H](NC(C)=O)[C@H](O[C@H]3[C@H](O)[C@@H](NC(C)=O)[C@H](O[C@H]4[C@H](O)[C@@H](NC(C)=O)C(O)O[C@@H]4CO)O[C@@H]3CO)O[C@@H]2CO)O[C@H](CO)[C@@H](O[C@@H]2O[C@H](CO)[C@@H](O[C@@H]3O[C@H](CO)[C@@H](O[C@@H]4O[C@H](CO)[C@@H](O)[C@H](O)[C@H]4NC(C)=O)[C@H](O)[C@H]3NC(C)=O)[C@H](O)[C@H]2NC(C)=O)[C@@H]1O` (some centres unmarked) [CO7, chitoheptaose] returned a Kd under setting [1] of 8.8 ± 1.2 µM.
Take LCO-IV(C18:1): where the note is “25 mM sodium cacodylate pH 6.0, 1 mM MgCl2, 1 mM CaCl2, 250 mM sucrose, 0.175% Fos-choline-10, 0.5% ethanol, 22 °C, single binding event, read-out: K d”, the Kd is about 0.24 µM.
Take LCO-IV(C18:1, S): under “25 mM sodium cacodylate pH 6.0, 1 mM MgCl2, 1 mM CaCl2, 250 mM sucrose, 0.175% Fos-choline-10, 0.5% ethanol, 22 °C, first (high-affinity) of two binding events, read-out: K d”, the Kd was about 0.015 µM.
